pIC50: −log10 of the molar value. Strand notation (5' to 3'): a small letter for the sugar, then the base; units joined by * are phosphorothioate-linked, units joined directly phosphodiester-linked; [ ] holds rarer units or linkages, { } end groups; capitals alone tell only the bases. e = 2'-O-(2-methoxyethyl) (MOE); [5mC] = 5-methylcytosine; d = 2'-deoxy (DNA)
How the values were obtained:
human PKK mRNA [1] = assay: Antisense inhibition of human PKK mRNA in HepaRG cells, 5,000 nM (Example 2); format: cell-based
How it was run: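 qRT-PCR (RTS3454) read-out, RIBOGREEN-normalized; % inhibition vs untreated cells. HepaRG, 20,000 cells/well, electroporation, 5,000 nM ASO, ~24 h.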

human PKK mRNA [2] = assay: Dose-dependent antisense inhibition of human PKK in HepaRG cells, 0.19-5.00 uM (Example 5); format: cell-based; conditions: for percent inhibition of PKK mRNA, 0.19 μM: 0.19 μM antisense oligonucleotide; for percent inhibition of PKK mRNA, 0.56 μM: 0.56 μM antisense oligonucleotide; for percent inhibition of PKK mRNA, 1.67 μM: 1.67 μM antisense oligonucleotide; for percent inhibition of PKK mRNA, 5.00 μM: 5.00 μM antisense oligonucleotide
How it was run: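 PKK mRNA knockdown was measured by real-time PCR (primer probe set RTS3454) about 16 h after electroporating 20,000 HepaRG cells per well with oligonucleotide at four doses from 0.19 to 5.00 μM. Levels were adjusted to RIBOGREEN-measured total RNA, and IC50 values were calculated.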

[3] = HepaRG cells, electroporation, approximately 16 hours, Table 36
[4] = HepaRG cells, electroporation, approximately 16 hours, Table 40
[5] = HepaRG cells, electroporation, approximately 16 hours, Table 39
[6] = 4 point dose response, HepaRG cells, Table 39
[7] = Table 13, human PKK mRNA in HepaRG cells, 5-10-5 gapmers
[8] = Table 34, HepaRG, electroporation, ~16 h
[9] = HepaRG cells, electroporation, approximately 16 hours, Table 38

Substance: 546986 (e[5mC]*eA*eG*eG*eA*dT*dA*dG*dA*dA*d[5mC]*dT*dG*dA*dT*eG*eG*eT*e[5mC]*e[5mC]; antisense) [compound 546986]
- % inhibition (human PKK mRNA [1]; HepaRG cells, 5,000 nM antisense oligonucleotide, 5-10-5 gapmers, Table 16): 91%
- percent inhibition of PKK at 0.19 μM (human PKK mRNA [2]; [3]): 31%
- percent inhibition of PKK at 0.56 μM (human PKK mRNA [2]; [3]): 49%
- percent inhibition of PKK at 1.67 μM (human PKK mRNA [2]; [3]): 77%
- percent inhibition of PKK at 5.00 μM (human PKK mRNA [2]; [3]): 89%
- pIC50 (human PKK mRNA [2]; 4 point dose response, HepaRG cells, Table 36): 6.30
- percent inhibition of PKK mRNA, 0.19 μM (human PKK mRNA [2]; HepaRG cells): 7%
- percent inhibition of PKK mRNA, 0.56 μM (human PKK mRNA [2]; HepaRG cells): 28%
- percent inhibition of PKK mRNA, 1.67 μM (human PKK mRNA [2]; HepaRG cells): 69%
- percent inhibition of PKK mRNA, 5.00 μM (human PKK mRNA [2]; HepaRG cells): 86%
- pIC50 (human PKK mRNA [2]; HepaRG cells, 0.19-5.00 μM): 5.96

Substance: 547288 (antisense e[5mC]*eA*eT*eA*eG*dA*dG*dT*dT*dG*dA*dG*dT*d[5mC]*dA*eG*eA*e[5mC]*eA*eT) [compound 547288]
- % inhibition (human PKK mRNA [1]; HepaRG cells, electroporation with 5,000 nM antisense oligonucleotide, approximately 24 hours, PKK mRNA by RT-PCR (RTS3454), relative to untreated control cells, Table 5 experiment): 80%
- percent inhibition of PKK at 0.19 μM (human PKK mRNA [2]; [4]): 0%
- percent inhibition of PKK at 0.56 μM (human PKK mRNA [2]; [4]): 0%
- percent inhibition of PKK at 1.67 μM (human PKK mRNA [2]; [4]): 0%
- percent inhibition of PKK at 5.00 μM (human PKK mRNA [2]; [4]): 38%
- pIC50 (human PKK mRNA [2]; 4 point dose response, HepaRG cells, Table 40): < 5.30

Substance: 547341 (antisense eG*eA*e[5mC]*eT*e[5mC]*d[5mC]*dT*d[5mC]*dT*d[5mC]*dA*dT*dA*dT*d[5mC]*eA*eA*e[5mC]*eT*e[5mC]) [compound 547341]
- % inhibition (human PKK mRNA [1]; HepaRG cells, electroporation with 5,000 nM antisense oligonucleotide, approximately 24 hours, PKK mRNA by RT-PCR (RTS3454), relative to untreated control cells, Table 6 experiment): 87%
- percent inhibition of PKK at 0.19 μM (human PKK mRNA [2]; [5]): 36%
- percent inhibition of PKK at 0.56 μM (human PKK mRNA [2]; [5]): 58%
- percent inhibition of PKK at 1.67 μM (human PKK mRNA [2]; [5]): 91%
- percent inhibition of PKK at 5.00 μM (human PKK mRNA [2]; [5]): 95%
- pIC50 (human PKK mRNA [2]; [6]): 6.52
- percent inhibition of PKK mRNA, 0.19 μM (human PKK mRNA [2]; HepaRG cells): 45%
- percent inhibition of PKK mRNA, 0.56 μM (human PKK mRNA [2]; HepaRG cells): 44%
- percent inhibition of PKK mRNA, 1.67 μM (human PKK mRNA [2]; HepaRG cells): 81%
- percent inhibition of PKK mRNA, 5.00 μM (human PKK mRNA [2]; HepaRG cells): 95%
- pIC50 (human PKK mRNA [2]; HepaRG cells, 0.19-5.00 μM): 6.22

Substance: 546827 (e[5mC]*eA*eG*eT*eA*dT*d[5mC]*dA*d[5mC]*dT*dG*dT*dA*d[5mC]*dT*eA*eG*eT*eT*eT; antisense) [compound 546827]
- % inhibition (human PKK mRNA [1]; [7]): 98%
- percent inhibition of PKK at 5.00 μM (human PKK mRNA [2]; HepaRG cells, electroporation, approximately 16 hours, Table 41): 96%
- percent inhibition of PKK at 0.19 0μM (human PKK mRNA [2]; 0.19 0μM, HepaRG cells, electroporation, approximately 16 hours, Table 41): 23%
- percent inhibition of PKK at 0.56 0μM (human PKK mRNA [2]; 0.56 0μM, HepaRG cells, electroporation, approximately 16 hours, Table 41): 74%
- percent inhibition of PKK at 1.67 1μM (human PKK mRNA [2]; 1.67 1μM, HepaRG cells, electroporation, approximately 16 hours, Table 41): 98%
- pIC50 (human PKK mRNA [2]; 4 point dose response, HepaRG cells, Table 41): 6.40
- percent inhibition of PKK at 0.19 μM (human PKK mRNA [2]; [8]): 32%
- percent inhibition of PKK at 0.56 μM (human PKK mRNA [2]; [8]): 70%
- percent inhibition of PKK at 1.67 μM (human PKK mRNA [2]; [8]): 84%
- percent inhibition of PKK at 5.00 μM (human PKK mRNA [2]; [8]): 90%
- pIC50 (human PKK mRNA [2]; Table 34, PKK mRNA, HepaRG, electroporation, ~16 h): 6.52

Substance: 547585 (eA*eA*e[5mC]*eA*eG*dT*dA*dT*d[5mC]*dA*d[5mC]*dT*dG*dT*d[5mC]*e[5mC]*eT*eA*eT*eA; antisense) [compound 547585]
- % inhibition (human PKK mRNA [1]; human PKK mRNA in HepaRG cells, 5-10-5 gapmers, Table 14): 85%
- percent inhibition of PKK at 0.19 μM (human PKK mRNA [2]; [9]): 42%
- percent inhibition of PKK at 0.56 μM (human PKK mRNA [2]; [9]): 57%
- percent inhibition of PKK at 1.67 μM (human PKK mRNA [2]; [9]): 70%
- percent inhibition of PKK at 5.00 μM (human PKK mRNA [2]; [9]): 95%
- pIC50 (human PKK mRNA [2]; 4 point dose response, HepaRG cells, Table 38): 6.40
- percent inhibition of PKK mRNA, 0.19 μM (human PKK mRNA [2]; HepaRG cells): 0%
- percent inhibition of PKK mRNA, 0.56 μM (human PKK mRNA [2]; HepaRG cells): 46%
- percent inhibition of PKK mRNA, 1.67 μM (human PKK mRNA [2]; HepaRG cells): 89%
- percent inhibition of PKK mRNA, 5.00 μM (human PKK mRNA [2]; HepaRG cells): 93%
- pIC50 (human PKK mRNA [2]; HepaRG cells, 0.19-5.00 μM): 6.10

Substance: 546835 (eT*eA*eA*e[5mC]*eT*d[5mC]*dT*dA*dA*d[5mC]*dA*dG*dT*dA*dT*e[5mC]*eA*e[5mC]*eT*eG; antisense) [compound 546835]
- % inhibition (human PKK mRNA [1]; [7]): 86%
- percent inhibition of PKK at 0.19 μM (human PKK mRNA [2]; [5]): 9%
- percent inhibition of PKK at 0.56 μM (human PKK mRNA [2]; [5]): 35%
- percent inhibition of PKK at 1.67 μM (human PKK mRNA [2]; [5]): 68%
- percent inhibition of PKK at 5.00 μM (human PKK mRNA [2]; [5]): 93%
- pIC50 (human PKK mRNA [2]; [6]): 6.05

Source: patent publication US11840686B2, “Modulation of prekallikrein (PKK) expression” (Ionis Pharmaceuticals, Inc., priority 2013, dated 2023)
